Patent publication US20220112187A1, “PYRAZOLOPYRIDINE AMINE COMPOUNDS FOR THE TREATMENT OF AUTOIMMUNE DISEASE” (Hoffmann-La Roche Inc., priority 2018, published 2022)

target: T1, human TLR8 (Homo sapiens, UniProt Q9NR97); assay: HEK293-Blue-hTLR-8 cells assay (SEAP reporter, R848 stimulation); assay type: cell-based; details: HEK293-Blue-hTLR8 cells, R848 ligand, 20 hrs incubation
T1 sequence (Q9NR97 27-1041): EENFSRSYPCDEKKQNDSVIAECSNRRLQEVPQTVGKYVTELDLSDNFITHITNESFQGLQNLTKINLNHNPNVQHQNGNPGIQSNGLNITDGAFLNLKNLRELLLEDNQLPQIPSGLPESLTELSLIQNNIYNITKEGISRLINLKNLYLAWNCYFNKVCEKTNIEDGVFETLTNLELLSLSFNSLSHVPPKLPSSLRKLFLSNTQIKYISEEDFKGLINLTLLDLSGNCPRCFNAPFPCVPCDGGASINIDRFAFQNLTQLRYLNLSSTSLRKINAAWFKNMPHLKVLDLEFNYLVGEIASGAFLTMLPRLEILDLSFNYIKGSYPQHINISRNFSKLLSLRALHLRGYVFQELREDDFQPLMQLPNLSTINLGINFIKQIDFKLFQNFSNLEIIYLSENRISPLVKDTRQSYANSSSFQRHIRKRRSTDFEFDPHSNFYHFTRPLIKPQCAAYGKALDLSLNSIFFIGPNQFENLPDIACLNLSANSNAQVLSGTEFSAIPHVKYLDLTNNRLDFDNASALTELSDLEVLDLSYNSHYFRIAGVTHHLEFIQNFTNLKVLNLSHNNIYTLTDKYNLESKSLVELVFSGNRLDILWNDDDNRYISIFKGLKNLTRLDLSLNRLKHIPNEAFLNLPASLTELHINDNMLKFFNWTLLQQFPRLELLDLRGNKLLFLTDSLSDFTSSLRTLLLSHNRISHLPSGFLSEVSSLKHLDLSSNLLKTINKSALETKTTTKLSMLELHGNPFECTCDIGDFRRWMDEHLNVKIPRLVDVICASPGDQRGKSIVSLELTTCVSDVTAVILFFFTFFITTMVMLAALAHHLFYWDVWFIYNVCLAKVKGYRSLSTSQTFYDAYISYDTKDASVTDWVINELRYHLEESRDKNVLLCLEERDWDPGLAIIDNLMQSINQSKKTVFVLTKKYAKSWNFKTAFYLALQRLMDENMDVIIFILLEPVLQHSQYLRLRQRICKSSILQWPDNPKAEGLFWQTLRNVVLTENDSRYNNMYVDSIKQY
Method in brief: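 Antagonist mode: HEK293-Blue-hTLR8 cells with serially diluted compound (1% DMSO final) plus R848 (10 μL of 60 uM stock) for 20 hrs at 37° C. Supernatant NF-κB/AP-1-driven SEAP measured with QUANTI-Blue substrate, 2 hrs at 37° C, absorbance 620–655 nm.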

Point of comparison: `C[C@@H]1CN(c2ccc(C#N)n3nccc23)C[C@H](CN2CCCC3(CCCNC3)C2)O1` (stereo partly drawn) [Example 23, 4-[(2S,6R)-2-(2,8-diazaspiro[5.5]undecan-2-ylmethyl)-6-methyl-morpholin-4-yl]pyrazolo[1,5-a]pyridine-7-carbonitrile], IC50 0.041 µM. Against it:
- C[C@@H]1CN(c2ccc(C#N)n3nccc23)C[C@H](CN2CCC(N3CCNCC3)CC2)O1 [Example 39, 4-[(2R,6S)-2-methyl-6-[(4-piperazin-1-yl-1-piperidyl)methyl]morpholin-4-yl]pyrazolo[1,5-a]pyridine-7-carbonitrile] — 4.4-fold higher, 0.18 µM
- C[C@@H]1CN(c2ccc(C#N)n3nccc23)C[C@H](CN2CCC3(CCNC3)CC2)O1 [Example 19, 4-[(2S,6R)-2-(2,8-diazaspiro[4.5]decan-8-ylmethyl)-6-methyl-morpholin-4-yl]pyrazolo[1,5-a]pyridine-7-carbonitrile] — 6.1-fold higher, 0.25 µM
- C[C@@H]1CN(c2ccc(C#N)n3ncc(F)c23)C[C@H](CN2CCC3(CCCNC3)C2)O1 (stereo partly drawn) [Example 69, 3-fluoro-4-[(2S,6R)-2-(2,9-diazaspiro[4.5]decan-2-ylmethyl)-6-methyl-morpholin-4-yl]pyrazolo[1,5-a]pyridine-7-carbonitrile] — 1.6-fold lower, 0.026 µM
- C[C@@H]1CN(c2ccc(C#N)n3nccc23)C[C@H](CN2CCC3(CCNCC3)C2)O1 [Example 18, 4-[(2S,6R)-2-(2,8-diazaspiro[4.5]decan-2-ylmethyl)-6-methyl-morpholin-4-yl]pyrazolo[1,5-a]pyridine-7-carbonitrile] — 8.5-fold higher, 0.35 µM
- C[C@@H]1CN(c2ccc(C#N)n3nccc23)C[C@H](CN2CCC3(CCN3)CC2)O1 [Example 48, 4-[(2S,6R)-2-(1,7-diazaspiro[3.5]nonan-7-ylmethyl)-6-methyl-morpholin-4-yl]pyrazolo[1,5-a]pyridine-7-carbonitrile] — 2.7-fold higher, 0.11 µM
- C[C@@H]1CN(c2ccc(C#N)n3nccc23)C[C@H](CN2CCC(CCN)CC2)O1 [Example 13, 4-[(2S,6R)-2-[[4-(2-aminoethyl)-1-piperidyl]methyl]-6-methyl-morpholin-4-yl]pyrazolo[1,5-a]pyridine-7-carbonitrile] — 18-fold higher, 0.74 µM
- C[C@@H]1CN(c2ccc(C#N)n3nccc23)C[C@H](CN2CC[C@H](N)[C@H](C)C2)O1 [Example 74, 4-[(2S,6R)-2-[[(3R,4S)-4-amino-3-methyl-1-piperidyl]methyl]-6-methyl-morpholin-4-yl]pyrazolo[1,5-a]pyridine-7-carbonitrile] — within 1.5-fold, 0.039 µM
- C[C@@H]1CN(c2ccc(C#N)n3nccc23)C[C@H](CN2C3CCCC2CC(N)C3)O1 (stereo partly drawn) [Example 66, Exo-4-[(2S,6R)-2-[(3-amino-9-azabicyclo[3.3.1]nonan-9-yl)methyl]-6-methyl-morpholin-4-yl]pyrazolo[1,5-a]pyridine-7-carbonitrile] — 3.4-fold higher, 0.14 µM
- CC1CN(C[C@H]2CN(c3ccc(C#N)n4nccc34)C[C@@H](C)O2)CCN1 (stereo partly drawn) [Example 28, 4-[(2R,6S)-2-methyl-6-[(3-methylpiperazin-1-yl)methyl]morpholin-4-yl]pyrazolo[1,5-a]pyridine-7-carbonitrile] — 1.6-fold higher, 0.065 µM
- CC1CC(N)CCN1C[C@H]1CN(c2ccc(C#N)n3nccc23)C[C@@H](C)O1 (stereo partly drawn) [Example 51, 4-[(2S,6R)-2-[(4-amino-2-methyl-1-piperidyl)methyl]-6-methyl-morpholin-4-yl]pyrazolo[1,5-a]pyridine-7-carbonitrile] — within 1.5-fold, 0.04 µM
- C[C@@H]1CN(c2ccc(C#N)n3nccc23)C[C@H](CN2CCCC3(CNC3)C2)O1 [Example 33, 4-[(2S,6R)-2-(2,6-diazaspiro[3.5]nonan-6-ylmethyl)-6-methyl-morpholin-4-yl]pyrazolo[1,5-a]pyridine-7-carbonitrile] — within 1.5-fold, 0.054 µM
- C[C@@H]1CN(c2ccc(C#N)n3nccc23)C[C@H](CN2CC3(CCNC3)CC2=O)O1 (stereo partly drawn) [Example 20, 4-[(2R,6R)-2-methyl-6-[(3-oxo-2,7-diazaspiro[4.4]nonan-2-yl)methyl]morpholin-4-yl]pyrazolo[1,5-a]pyridine-7-carbonitrile] — 15-fold higher, 0.61 µM
